Laboratory results: patent US20130071535A1, “FOOD AND FLAVORANT COMPOSITIONS COMPRISING RENEWABLY-BASED, BIODEGRADABLE 1,3-PROPANEDIOL” (DuPont Tate & Lyle Bio Products Company, LLC, priority 2006, published 2013)

How the values were obtained:
human skin [1] = experiment: Second human skin patch test; assay type: in vivo
From the text: (§1) Based on these studies PDO is not expected to be a skin irritant or sensitizer in humans.

human skin [2] = experiment: Human skin patch test (first); assay type: in vivo; conditions: approximately 100 subjects; 5, 25, and 50% PDO
From the text: as §1

Viscosity of formulation = assay type: physicochemical; conditions: cosmetic emulsion of Example 1 with other glycol instead of Bio-PDO

Row | viscosity of the cosmetic emulsion with the comparison glycol (Viscosity of formulation) [cps] | Structure (SMILES) | clinically significant dermal irritation or sensitization reactions (human skin [1]; 25, 50, and 75% PDO at pH 7, or 75% PDO at pH 4 and 9) | skin reactions indicative of irritation or sensitization (human skin [2]) | patch test irritation and cumulative irritation for human skin (human skin [1]; 25, 50, and 75% (pH 7))
1 |  | OCCCO [Bio-PDO, 1,3-propanediol] | did not produce any clinically significant dermal irritation or sensitization reactions | did not cause any skin reactions indicative of irritation or sensitization | 
2 | 9600 | CC(CO)CO [2-methyl-1,3-propanediol] |  |  | 
3 | 12600 | CC(O)CO (stereo not drawn) [propylene glycol] |  |  | patch test irritants and cumulative irritants

Row | Structure (SMILES) | viscosity of the cosmetic emulsion with the comparison glycol (Viscosity of formulation) [cps] | clinically significant dermal irritation or sensitization reactions (human skin [1]; 25, 50, and 75% PDO at pH 7, or 75% PDO at pH 4 and 9) | skin reactions indicative of irritation or sensitization (human skin [2]) | patch test irritation and cumulative irritation for human skin (human skin [1]; 25, 50, and 75% (pH 7))
4 | CC(O)CCO (stereo not drawn) [1,3-butylene glycol] | 6000 |  |  | 
